Experimental data reported in patent USRE48335E1, “Polymyxin derivatives as antimicrobial compounds” (priority 2014, dated 2020).
≈ marks a conversion by molar mass, not a printed value. Where two headings read alike, the source gives them in different places. Positions of bridges follow the written chain, without caps; N, C: chain ends. Non-standard residues stand in square brackets, D forms with d. Residues, ends and D or L forms follow the SMILES beside them. *: point of attachment. Octanoyl = CCCCCCCC(=O)*; Dab = NCC[C@H](N)C(=O)O; Hexanoyl = CCCCCC(=O)*

Assays:
Enterobacter cloacae = system: Enterobacter cloacae
Procedure, shortened: (§1)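 Lipopeptides, as trifluoroacetate salts, tested for MIC in CAMHB by CLSI broth microdilution, with polymyxin B (sulphate) as comparator.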

Klebsiella pneumoniae = system: Klebsiella pneumoniae
Procedure, shortened: as §1

Acinetobacter baumannii = system: Acinetobacter baumannii
Procedure, shortened: as §1

Pseudomonas aeruginosa = system: Pseudomonas aeruginosa
Procedure, shortened: as §1

P. aeruginosa ATCC 27853 = experiment: In vivo efficacy in mouse blood infection model (neutropenic Swiss mice); details: compound, free base 4 mg/kg intravenously 2 h after inoculation, blood at 4 h
Experimental: P. aeruginosa ATCC 27853, A. baumannii ATCC 19606 and K. pneumoniae FADDI-KP032 were subcultured on nutrient agar plates. One colony of each bacterial strain was dispersed in 10-mL CAMHB and incubated overnight. On day 2, an aliquot (0.2 mL) of each overnight culture suspension was dispersed in 20-mL CAMHB and incubated for 1.5-2.5 h for production of early log-phase growth bacterial culture. The bacteria in the early log-phase growth suspension were concentrated by centrifugation (3,220 g for 10 min) and re-suspended in sterile 0.9% saline for inoculation into mice. The bacterial cell concentration (colony forming unit [CFU]/mL) in saline was estimated by determining the optical density (OD) of the suspension at 600 nm, and confirmed by plating the suspension on nutrient agar plates. Swiss mice (22 to 28 g) were rendered neutropenic by injecting two doses of cyclophosphamide intraperitoneally, −4 day (150 mg/kg) and −1 day (100 mg/kg) prior to inoculation. Bloodstream infection was established by injecting intravenously 50 μL of early log-phase bacterial suspension (10^8-10^9 CFU/mL). The exact injection volume for each bacterial suspension was calculated based upon the OD value of the bacterial suspension and the desired inoculum for each isolate.
Solutions for administration of colistin, polymyxin B or the compounds were prepared at a concentration of 1 mg (free base) per mL in sterile 0.9% saline. At 2 h after inoculation, a mouse in the treatment groups was injected intravenously with one of the above solutions at 4 μL/g body weight (BW) (i.e. free base 4 mg/kg BW), while the same volume of saline was injected into the control mice. At 0 h or at 4 h after the administration of antibacterial drug or saline (control), animals were euthanised by inhalation of overdose isoflurane. The skin on the chest and fore-paws of each animal was thoroughly cleansed with 70% ethanol and Betadine®. The blood was collected via cardiac puncture using a 1-mL syringe rinsed with heparin (5,000 IU/mL), diluted serially in sterile 0.9% saline and plated on nutrient agar plates using a spiral plater.
The agar plates were incubated at 37° C. overnight. The bacterial colonies on the plate were counted and CFU/mL of the blood was calculated. The log10 CFU/mL of blood in each mouse was calculated. The in vivo activity of the compounds against the bacteria was calculated as the difference of the log10 CFU/mL values between the treated mice and the control mice at 4 h (Δ log=log10 (treated)CFU/mL−log10 (control)CFU/mL).
Any compound showing a decrease in bacterial loading (Δ log) of ≥2 at 4 h is considered to have good in vivo efficacy in this initial screening model.

Molecule	Minimum inhibitory concentration, Ec FADDI-EC001 (Enterobacter cloacae) [µg/mL]	Minimum inhibitory concentration, Ec FADDI-EC003 (Enterobacter cloacae) [µg/mL]	Minimum inhibitory concentration, Ec FADDI-EC006 (Enterobacter cloacae) [µg/mL]	MIC (Klebsiella pneumoniae) [µg/mL]	MIC (Acinetobacter baumannii) [µg/mL]	Minimum inhibitory concentration, Ab A ATCC 17978 (Acinetobacter baumannii) [µg/mL]	Minimum inhibitory concentration, Ab ATCC 19606 (Acinetobacter baumannii) [µg/mL]	Minimum inhibitory concentration, Ab FADDI-AB034 (Acinetobacter baumannii) [µg/mL]	MIC (Pseudomonas aeruginosa) [µg/mL]	Minimum inhibitory concentration, Pa ATCC 27853 (Pseudomonas aeruginosa) [µg/mL]	Minimum inhibitory concentration, Pa FADDI-PA022 (Pseudomonas aeruginosa) [µg/mL]	Minimum inhibitory concentration, Pa FADDI-PA025 (Pseudomonas aeruginosa) [µg/mL]	other results
CCCCCCCC(=O)N[C@@H](CCN)C(=O)N[C@H](C(=O)N[C@H](CO)C(=O)N[C@H]1CCNC(=O)[C@H]([C@@H](C)O)NC(=O)[C@H](CCN)NC(=O)[C@H](CCN)NC(=O)[C@H](C)NC(=O)[C@@H](CC(C)C)NC(=O)[C@H](CCN)NC1=O)[C@@H](C)O [Compound 2] (Octanoyl-[Dab]T[dS][Dab][Dab][dL]A[Dab][Dab]T; lactam 4-C)	<0.125	<0.125	0.5 (≈ 0.454 µM)	0.5 (≈ 0.454 µM)	0.5 (≈ 0.454 µM)	0.5 (≈ 0.454 µM)	0.5 (≈ 0.454 µM)	0.5 (≈ 0.454 µM)	8 (≈ 7.27 µM)	8 (≈ 7.27 µM)	8 (≈ 7.27 µM)	>32	
CCCCCCCC(=O)N[C@@H](CCN)C(=O)N[C@H](C(=O)N[C@H](CO)C(=O)N[C@H]1CCNC(=O)[C@H]([C@@H](C)O)NC(=O)[C@H](CCN)NC(=O)[C@H](CCN)NC(=O)[C@H]([C@@H](C)O)NC(=O)[C@@H](Cc2ccccc2)NC(=O)[C@H](CCN)NC1=O)[C@@H](C)O [Compound 3] (Octanoyl-[Dab]T[dS][Dab][Dab][dF]T[Dab][Dab]T; lactam 4-C)	0.5 (≈ 0.429 µM)	<0.125	0.25 (≈ 0.215 µM)	<0.125	0.25 (≈ 0.215 µM)	<0.125	0.25 (≈ 0.215 µM)	<0.125	4 (≈ 3.44 µM)	4 (≈ 3.44 µM)	4 (≈ 3.44 µM)	>32	
CCCCCCCC(=O)N[C@@H](CCN)C(=O)N[C@H](C(=O)N[C@H](CO)C(=O)N[C@H]1CCNC(=O)[C@H]([C@@H](C)O)NC(=O)[C@H](CCN)NC(=O)[C@H](CCN)NC(=O)[C@H](C(C)C)NC(=O)[C@@H](CC(C)C)NC(=O)[C@H](CCN)NC1=O)[C@@H](C)O [Compound 5] (Octanoyl-[Dab]T[dS][Dab][Dab][dL]V[Dab][Dab]T; lactam 4-C)	0.25 (≈ 0.222 µM)	<0.125	0.25 (≈ 0.222 µM)	<0.125	<0.125	<0.125	<0.125	0.25 (≈ 0.222 µM)	2 (≈ 1.77 µM)	2 (≈ 1.77 µM)	4 (≈ 3.54 µM)	16 (≈ 14.2 µM)	
CCCCCCCC(=O)N[C@@H](CCN)C(=O)N[C@H](C(=O)N[C@H](CO)C(=O)N[C@H]1CCNC(=O)[C@H]([C@@H](C)O)NC(=O)[C@H](CCN)NC(=O)[C@H](CCN)NC(=O)[C@H](CO)NC(=O)[C@@H](CC(C)C)NC(=O)[C@H](CCN)NC1=O)[C@@H](C)O [Compound 6] (Octanoyl-[Dab]T[dS][Dab][Dab][dL]S[Dab][Dab]T; lactam 4-C)	0.25 (≈ 0.224 µM)	0.25 (≈ 0.224 µM)	0.25 (≈ 0.224 µM)	0.5 (≈ 0.448 µM)	1 (≈ 0.896 µM)	1 (≈ 0.896 µM)	1 (≈ 0.896 µM)	0.5 (≈ 0.448 µM)	>32	>32	4 (≈ 3.58 µM)	>32	
CCCCCC(=O)N[C@@H](CCN)C(=O)N[C@H](C(=O)N[C@H](CO)C(=O)N[C@H]1CCNC(=O)[C@H]([C@@H](C)O)NC(=O)[C@H](CCN)NC(=O)[C@H](CCN)NC(=O)[C@H]([C@@H](C)O)NC(=O)[C@@H](CC(C)C)NC(=O)[C@H](CCN)NC1=O)[C@@H](C)O [Compound 8] (Hexanoyl-[Dab]T[dS][Dab][Dab][dL]T[Dab][Dab]T; lactam 4-C)	0.25 (≈ 0.227 µM)	0.5 (≈ 0.454 µM)	0.25 (≈ 0.227 µM)	1 (≈ 0.907 µM)	2 (≈ 1.81 µM)	2 (≈ 1.81 µM)	2 (≈ 1.81 µM)	1 (≈ 0.907 µM)	4 (≈ 3.63 µM)	4 (≈ 3.63 µM)	8 (≈ 7.26 µM)	>32	Δ log (Treated-Control at 4 h) (P. aeruginosa ATCC 27853): −0.05 log10 CFU/mL
CCCCCC(=O)N[C@@H](CCN)C(=O)N[C@H](C(=O)N[C@@H](CCN)C(=O)N[C@H]1CCNC(=O)[C@H]([C@@H](C)O)NC(=O)[C@H](CCN)NC(=O)[C@H](CCN)NC(=O)[C@H]([C@@H](C)O)NC(=O)[C@@H](CC(C)C)NC(=O)[C@H](CCN)NC1=O)[C@@H](C)O [Compound 26] (Hexanoyl-[Dab]T[Dab][Dab][Dab][dL]T[Dab][Dab]T; lactam 4-C)	0.5 (≈ 0.448 µM)	0.5 (≈ 0.448 µM)	1 (≈ 0.897 µM)	2 (≈ 1.79 µM)	16 (≈ 14.3 µM)	8 (≈ 7.17 µM)	16 (≈ 14.3 µM)	16 (≈ 14.3 µM)	0.5 (≈ 0.448 µM)	0.5 (≈ 0.448 µM)	2 (≈ 1.79 µM)	>32	Δ log (Treated-Control at 4 h) (P. aeruginosa ATCC 27853): −0.04 log10 CFU/mL
colistin [reference compound]													Minimum inhibitory concentration, Ec FADDI-EC001 (Enterobacter cloacae; Enterobacter cloacae FADDI-EC001, broth microdilution in CAMHB): 0.25 µg/mL; Minimum inhibitory concentration, Ec FADDI-EC003 (Enterobacter cloacae; Enterobacter cloacae FADDI-EC003, broth microdilution in CAMHB): <0.125 µg/mL; Minimum inhibitory concentration, Ec FADDI-EC006 (Enterobacter cloacae; Enterobacter cloacae FADDI-EC006, broth microdilution in CAMHB): <0.125 µg/mL; Minimum inhibitory concentration, Ab A ATCC 17978 (Acinetobacter baumannii; Acinetobacter baumannii ATCC 17978, broth microdilution in CAMHB): 0.5 µg/mL; Minimum inhibitory concentration, Ab ATCC 19606 (Acinetobacter baumannii; Acinetobacter baumannii ATCC 19606, broth microdilution in CAMHB): 1 µg/mL; Minimum inhibitory concentration, Ab FADDI-AB034 (Acinetobacter baumannii; Acinetobacter baumannii FADDI-AB034, broth microdilution in CAMHB): 0.5 µg/mL; Minimum inhibitory concentration, Pa ATCC 27853 (Pseudomonas aeruginosa; Pseudomonas aeruginosa ATCC 27853, broth microdilution in CAMHB): 1 µg/mL; Minimum inhibitory concentration, Pa FADDI-PA022 (Pseudomonas aeruginosa; Pseudomonas aeruginosa FADDI-PA022, broth microdilution in CAMHB): 1 µg/mL; Minimum inhibitory concentration, Pa FADDI-PA025 (Pseudomonas aeruginosa; Pseudomonas aeruginosa FADDI-PA025, broth microdilution in CAMHB): 2 µg/mL
